Source: patent US11000033B2, “Ketone or oxime compound, and herbicide” (NISSAN CHEMICAL CORPORATION, priority 2014, dated 2021)

Columns and labels:
Assay type in all cases: in vivo
Settings in all cases: application herbicide amount 320 g/ha
[1] = test system: Echinochloa oryzacola Vasing.; assay: Test Example 1: herbicidal activity, application before weed generation in submerged conditions (symbol A)
From the text: (§1) Herbicidal Activity Test by Application Before Weed Generation in Submerged Conditions
(§2) After alluvial soil was placed into 1/10000 are of Wagner pot, water was poured and mixed to form a submerged condition having a water depth of 4 cm. Seeds of Echinochloa oryzacola Vasing., Scirpus juncoides, and Monochoria vaginalis were sowed in a mixed manner in the above pot and thereafter 2.5 leaf stage rice plant seedlings were transplanted thereto. On the day of sowing seeds, the emulsion agent of the compound of the present invention prepared in accordance with Formulation Example 2 was diluted with water so as to be a predetermined herbicide amount and the diluted emulsion agent was applied to the surface of the water. The pot was placed in a greenhouse of 25° C. to 30° C. to grow plant. 3 weeks later from the herbicide application, the effect to each plant was investigated in accordance with the following criteria.
(§3) 5 Herbicidal ratio of 90% or more (almost completely withered)
(§4) 4 Herbicidal ratio of 70% or higher and lower than 90%
(§5) 3 Herbicidal ratio of 40% or higher and lower than 70%
(§6) 2 Herbicidal ratio of 20% or higher and lower than 40%
(§7) 1 Herbicidal ratio of 5% or higher and lower than 20%
(§8) 0 Herbicidal ratio of 5% or lower (almost no effect)

Scirpus juncoides = assay: Test Example 1: herbicidal activity, application before weed generation in submerged conditions (symbol B)
From the text: as §1, §2, §3, §4, §5, §6, §7, §8

Monochoria vaginalis = assay: Test Example 1: herbicidal activity, application before weed generation in submerged conditions (symbol C)
From the text: as §1, §2, §3, §4, §5, §6, §7, §8

transplanted rice plant = assay: Test Example 1: effect on crop, application before weed generation in submerged conditions (symbol a)
Procedure: as §1
as §2, with “On the day of sowing seeds, the emulsion agent of the compound of the present invention prepared in accordance with Formulation Example 2 was diluted with water so as to be a predetermined herbicide amount and the diluted emulsion agent was applied to the surface of the water.” left out
as §3, §4, §5, §6, §7, §8

[2] = test system: Echinochloa crus-galli var. crus-galli; assay: Test Example 3: herbicidal effect by foliage application, Wagner pot (symbol H)
Procedure: (§9) Herbicidal Effect Test by Foliage Application
(§10) After alluvial soil was placed into 1/10000 are of Wagner pot, water was poured and mixed to form a submerged condition having a water depth of 0.1 cm to 0.5 cm. Seeds of Echinochloa crus-galli var. crus-galli, Leptochloa chinensis, Cyperus difformis, and rice were sowed and the pot was placed in the greenhouse of 25° C. to 30° C. to grow the plants. After the plants were grown for 14 days, the emulsion agent of the compound of the present invention prepared in accordance with Formulation Example 2 was diluted with water so as to be a predetermined herbicide amount and the diluted emulsion agent was uniformly applied to a foliage part with a small-size spray. 3 weeks later from the herbicide application, the effect to each plant was investigated in accordance with the criteria of Test Example 1.

Leptochloa chinensis = assay: Test Example 3: herbicidal effect by foliage application, Wagner pot (symbol D)
Procedure: as §9, §10

Cyperus difformis = assay: Test Example 3: herbicidal effect by foliage application, Wagner pot (symbol E)
Procedure: as §9, §10

[3] = test system: directly sowed rice plant; assay: Test Example 3: effect on crop by foliage application, Wagner pot (symbol b)
Procedure: as §9
After alluvial soil was placed into 1/10000 are of Wagner pot, water was poured and mixed to form a submerged condition having a water depth of 0.1 cm to 0.5 cm. Seeds of Echinochloa crus-galli var. crus-galli, Leptochloa chinensis, Cyperus difformis, and rice were sowed and the pot was placed in the greenhouse of 25° C. to 30° C. to grow the plants.

SMILES | Herbicidal effect grade, A: Echinochloa oryzacola Vasing. [1] | Herbicidal effect grade, B: Scirpus juncoides (Scirpus juncoides) | Herbicidal effect grade, C: Monochoria vaginalis (Monochoria vaginalis) | Effect grade on crop, a: transplanted rice plant (transplanted rice plant) | herbicidal effect on H (Echinochloa crus-galli var. crus-galli), grade 0-5 [2] | herbicidal effect on D (Leptochloa chinensis), grade 0-5 (Leptochloa chinensis) | herbicidal effect on E, grade 0-5 (Cyperus difformis) | effect on crop b (directly sowed rice plant), grade 0-5 [3]
CON=C(CCl)CC1CC(OC)=C(c2c(C)cc(C)cc2C)C1=O (stereo not drawn) [1-077] | 1 (Herbicidal ratio of 5% or higher and lower than 20%) | 2 (Herbicidal ratio of 20% or higher and lower than 40%) | 0 (Herbicidal ratio of 5% or lower (almost no effect)) | 1 (Herbicidal ratio of 5% or higher and lower than 20%) |  |  |  | 
CON=C(CCl)CC1CC(O)=C(c2c(C)cc(C)cc2C)C1=O (stereo not drawn) [1-084] |  |  |  |  | 2 (Herbicidal ratio of 20% or higher and lower than 40%) | 0 (Herbicidal ratio of 5% or lower (almost no effect)) | 0 (Herbicidal ratio of 5% or lower (almost no effect)) | 1 (Herbicidal ratio of 5% or higher and lower than 20%)
CON=C(C)CC1CC(OC(=S)N(C)C)=C(c2c(C)cc(C)cc2C)C1=O (stereo not drawn) [1-141] |  |  |  |  | 2 (Herbicidal ratio of 20% or higher and lower than 40%) | 0 (Herbicidal ratio of 5% or lower (almost no effect)) |  | 1 (Herbicidal ratio of 5% or higher and lower than 20%)
CON=C(C)CC1CC(OC(=O)N(c2ccccc2)c2ccccc2)=C(c2c(C)cc(C)cc2C)C1=O (stereo not drawn) [1-157] |  |  |  |  | 0 (Herbicidal ratio of 5% or lower (almost no effect)) | 4 (Herbicidal ratio of 70% or higher and lower than 90%) |  | 0 (Herbicidal ratio of 5% or lower (almost no effect))
CON=C(CC1CC(O)=C(c2c(C)cc(C)cc2C)C1=O)c1ccc(C)cc1 (stereo not drawn) [1-164] |  |  |  |  | 2 (Herbicidal ratio of 20% or higher and lower than 40%) | 3 (Herbicidal ratio of 40% or higher and lower than 70%) | 0 (Herbicidal ratio of 5% or lower (almost no effect)) | 4 (Herbicidal ratio of 70% or higher and lower than 90%)
